Reference: patent US20230150970A1, “AMINOPYRIMIDINE DERIVATIVES AND THEIR USE AS ARYL HYDROCARBON RECEPTOR MODULATORS” (DONG-A ST CO., LTD., priority 2020, published 2023)
Like-named read-outs stand apart in the source and are kept apart here.

Assays:
AhR [1] = target: T1, AhR (Homo sapiens, UniProt P35869); experiment: In Vitro Assay 4: endogenous AhR activity assay (CYP1A1 and CYP1B1 mRNA, qRT-PCR, HepG2 cells)
T1 sequence (P35869 11-848): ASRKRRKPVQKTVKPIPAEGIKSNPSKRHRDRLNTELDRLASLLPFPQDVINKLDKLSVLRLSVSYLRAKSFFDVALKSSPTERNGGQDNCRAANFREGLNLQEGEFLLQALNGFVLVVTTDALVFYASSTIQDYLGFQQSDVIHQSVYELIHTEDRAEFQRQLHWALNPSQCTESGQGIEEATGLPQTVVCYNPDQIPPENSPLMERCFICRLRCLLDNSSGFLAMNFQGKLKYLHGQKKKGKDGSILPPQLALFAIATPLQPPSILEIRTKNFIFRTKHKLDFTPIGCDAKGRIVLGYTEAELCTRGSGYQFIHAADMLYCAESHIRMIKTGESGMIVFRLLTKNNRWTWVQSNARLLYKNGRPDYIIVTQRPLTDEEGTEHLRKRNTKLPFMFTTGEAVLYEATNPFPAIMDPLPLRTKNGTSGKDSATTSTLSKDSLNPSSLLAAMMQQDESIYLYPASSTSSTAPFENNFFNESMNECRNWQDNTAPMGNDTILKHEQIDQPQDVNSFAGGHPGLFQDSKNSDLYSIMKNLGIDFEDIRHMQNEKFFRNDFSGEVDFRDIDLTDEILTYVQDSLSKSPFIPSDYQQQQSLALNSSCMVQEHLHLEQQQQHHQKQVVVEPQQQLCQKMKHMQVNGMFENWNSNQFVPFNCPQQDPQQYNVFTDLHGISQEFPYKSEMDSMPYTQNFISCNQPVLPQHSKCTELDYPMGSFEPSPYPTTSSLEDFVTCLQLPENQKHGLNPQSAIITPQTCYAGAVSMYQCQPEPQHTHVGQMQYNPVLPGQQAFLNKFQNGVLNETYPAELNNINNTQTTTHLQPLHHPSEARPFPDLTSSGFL
Procedure: In Vitro Assay 4: Endogenous AhR Activity Assay
HepG2 cells were seeded in 12-well plate (3×10^5 cells/well). A day after seeding, the cells were treated with TCDD (10 nM) alone or with compounds (123 nM) for 4 hours. Total RNA was extracted using Trizol (Thermo Fisher Scientific). cDNA synthesis and quantitative RT-PCR (qRT-PCR) assays were performed using PrimeScript™ RT Master Mix (TAKARA) and TB Green™ Premix Ex Taq™ II (TAKARA) in accordance with manufacturer's instruction. For the measurement of endogenous AhR activity, relative mRNA levels of CYP1A1 and CYP1B1 were quantitated relative to β-actin mRNA by the comparative Ct (ΔΔCt) method. The percent inhibitions were calculated according to:

AhR [2] = target: T1, AhR; experiment: In Vitro Assay 1: XRE-luciferase reporter assay, antagonism in human cell line (HepG2)
AhR [3] = target: T1, AhR; experiment: In Vitro Assay 3: XRE-luciferase reporter assay, agonism in human cell line (HepG2); format: cell-based; parameters: endogenous in cells; host or cells: HepG2; settings: HepG2, tryptophan free medium, 6 hours, no agonist, read-out: Assay 3: AhR-Luc Human Agonism (EC50)
Procedure: In Vitro Assay 3: Agonism in Human Cell Line
HepG2 (human hepatoma cell line) cells co-transfected with XRE-Luc and Nano-Luc plasmids were plated in tryptophan free medium containing 1% of dialyzed fetal bovine serum and incubated overnight at 37° C. in a CO2 incubator. After 24 hours, cells were treated for 6 hours with test compounds or not. […] As a positive control, cells were incubated with TCDD.

[4] = HepG2, read-out: CYP1A1 (% Inhibition)
[5] = HepG2, read-out: CYP1B1 (% Inhibition)
[6] = Assay 1: AhR-Luc Human Antagonism (IC50, nM), values marked *: kynurenine 50 μM, 6 hours
[7] = Assay 1: AhR-Luc Human Antagonism (IC50, nM), unmarked values: kynurenine 200 μM, 6 hours
[8] = read-out: Assay 1: AhR-Luc Human Antagonism (IC50), values marked *: kynurenine 50 μM, 6 hours

## CC1CCN(c2cc(-c3ccc(Cl)cc3)nc(-c3cccnc3)n2)CC1 [Example 27, 4-(4-chlorophenyl)-6-(4-methylpiperidin-1-yl)-2-(pyridin-3-yl)pyrimidine]
AhR [1]; [4]
  inhibition at 0.123 µM: 68.4%
AhR [1]; [5]
  inhibition at 0.123 µM: 90.3%
AhR [2]; [6]
  IC50: < 10 nM

## OCC1CCN(c2cc(-c3ccc(Cl)cc3)nc(-c3cccnc3)n2)CC1 [Example 42, (1-(6-(4-chlorophenyl)-2-(pyridin-3-yl)pyrimidin-4-yl)piperidin-4-yl)methanol]
AhR [1]; [4]
  inhibition at 0.123 µM: 98.8%
AhR [1]; [5]
  inhibition at 0.123 µM: 99.3%
AhR [2]; [6]
  IC50: < 10 nM

## OCCC1CCN(c2cc(-c3ccc(Cl)cc3)nc(-c3cccnc3)n2)CC1 [Example 43, 2-(1-(6-(4-chlorophenyl)-2-(pyridin-3-yl)pyrimidin-4-yl)piperidin-4-yl)ethan-1-ol]
AhR [1]; [4]
  inhibition at 0.123 µM: 97.1%
AhR [1]; [5]
  inhibition at 0.123 µM: 100%
AhR [2]; [6]
  IC50: < 10 nM

## C[C@@H]1CN(c2cc(-c3ccc(Cl)cc3)nc(-c3cccnc3)n2)C[C@H](C)O1 [Example 70, cis-4-(6-(4-chlorophenyl)-2-(pyridin-3-yl)pyrimidin-4-yl)-2,6-dimethylmorpholine]
AhR [2]; [6]
  IC50: > 1000 nM
AhR [3]; number of the cell
  EC50: 758 nM

## Cc1cccc(N2CCN(c3cc(-c4ccc(Cl)cc4)nc(-c4cccnc4)n3)CC2)c1C [Example 118, 4-(4-chlorophenyl)-6-(4-(2,3-dimethylphenyl)piperazin-1-yl)-2-(pyridin-3-yl)pyrimidine]
AhR [2]; [6]
  IC50: 10 to 100 nM
AhR [3]; number of the cell
  EC50: 1580 nM

## C[C@@H](O)[C@@H](C)Nc1cc(-c2ccc(Cl)cc2)nc(-c2cccnc2)n1 [Example 144, (2R,3R)-3-((6-(4-chlorophenyl)-2-(pyridin-3-yl)pyrimidin-4-yl)amino)butan-2-ol]
AhR [2]; [6]
  IC50: 10 to 100 nM
AhR [3]; number of the cell
  EC50: 55.9 nM

## CC(=O)N1CCC(Nc2cc(-c3ccc(Cl)cc3)nc(-c3cccnc3)n2)CC1 [Example 146, 1-(4-((6-(4-chlorophenyl)-2-(pyridin-3-yl)pyrimidin-4-yl)amino)piperidin-1-yl)ethan-1-one]
AhR [1]; [4]
  inhibition at 0.123 µM: 41.8%
AhR [1]; [5]
  inhibition at 0.123 µM: 77.2%
AhR [2]; [6]
  IC50: 10 to 100 nM

## COCCN1CCC(CNc2cc(-c3ccc(Cl)cc3)nc(-c3cccnc3)n2)CC1 [Example 170, 6-(4-chlorophenyl)-N-((1-(2-methoxyethyl)piperidin-4-yl)methyl)-2-(pyridin-3-yl)pyrimidin-4-amine]
AhR [2]; [6]
  IC50: 10 to 100 nM
AhR [3]; class in brackets of the cell
  EC50: > 10000 nM
AhR [3]; number of the cell
  EC50: > 30000 nM

## CC(CO)N1CCN(c2cc(-c3ccc(Cl)cc3)nc(-c3cccnc3)n2)CC1 (centres unmarked) [Example 224, 2-(4-(6-(4-chlorophenyl)-2-(pyridin-3-yl)pyrimidin-4-yl)piperazin-1-yl)propan-1-ol]
AhR [2]; [6]
  IC50: < 10 nM
AhR [3]; class in brackets of the cell
  EC50: > 10000 nM
AhR [3]; number of the cell
  EC50: > 30000 nM

## COCC(=O)NC1CCN(c2cc(-c3ccc(Cl)cc3)nc(-c3cccnc3)n2)CC1 [Example 225, N-(1-(6-(4-chlorophenyl)-2-(pyridin-3-yl)pyrimidin-4-yl)piperidin-4-yl)-2-methoxyacetamide]
AhR [2]; [6]
  IC50: < 10 nM
AhR [3]; class in brackets of the cell
  EC50: > 10000 nM
AhR [3]; number of the cell
  EC50: > 30000 nM

## COc1ccc(-c2cc(N3CCC(CO)CC3)nc(-c3cccnc3)n2)cc1 [Example 228, (1-(6-(4-methoxyphenyl)-2-(pyridin-3-yl)pyrimidin-4-yl)piperidin-4-yl)methanol]
AhR [1]; [4]
  inhibition at 0.123 µM: 107%
AhR [1]; [5]
  inhibition at 0.123 µM: 101%
AhR [2]; [7]
  IC50: 10 to 100 nM

## Cc1ccc(-c2cc(N3CCC(CO)CC3)nc(-c3cccnc3)n2)cc1 [Example 229, (1-(2-(pyridin-3-yl)-6-(p-tolyl)pyrimidin-4-yl)piperidin-4-yl)methanol]
AhR [1]; [4]
  inhibition at 0.123 µM: 108%
AhR [1]; [5]
  inhibition at 0.123 µM: 101%
AhR [2]; [7]
  IC50: 10 to 100 nM
AhR [3]; class in brackets of the cell
  EC50: > 10000 nM
AhR [3]; number of the cell
  EC50: > 30000 nM

## OCC1CCN(c2cc(-c3ccc(Cl)c(F)c3)nc(-c3cccnc3)n2)CC1 [Example 246, (1-(6-(4-chloro-3-fluorophenyl)-2-(pyridin-3-yl)pyrimidin-4-yl)piperidin-4-yl)methanol]
AhR [2]; [7]
  IC50: < 10 nM
AhR [3]; class in brackets of the cell
  EC50: > 10000 nM
AhR [3]; number of the cell
  EC50: > 30000 nM

## OC[C@H]1CCN(c2cc(-c3ccc(C(F)(F)F)cc3)nc(-c3cccnc3)n2)C[C@@H]1O [Example 260, (3R,4R)-4-(hydroxymethyl)-1-(2-(pyridin-3-yl)-6-(4-(trifluoromethyl)phenyl)pyrimidin-4-yl)piperidin-3-ol]
AhR [2]; [7]
  IC50: < 10 nM
AhR [3]; class in brackets of the cell
  EC50: > 10000 nM
AhR [3]; number of the cell
  EC50: > 30000 nM

## OC[C@@H]1CCN(c2cc(-c3ccc(C(F)(F)F)cc3)nc(-c3cccnc3)n2)C[C@H]1O [Example 262, (3S,4S)-4-(hydroxymethyl)-1-(2-(pyridin-3-yl)-6-(4-(trifluoromethyl)phenyl)pyrimidin-4-yl)piperidin-3-ol]
AhR [2]; [7]
  IC50: < 10 nM
AhR [3]; class in brackets of the cell
  EC50: > 10000 nM
AhR [3]; number of the cell
  EC50: > 30000 nM

## OCC1CCN(c2cc(-c3ccc(Cl)c(O)c3)nc(-c3cccnc3)n2)CC1 [Example 273, 2-chloro-5-(6-(4-(hydroxymethyl)piperidin-1-yl)-2-(pyridin-3-yl)pyrimidin-4-yl)phenol]
AhR [2]; [7]
  IC50: 10 to 100 nM
AhR [3]; class in brackets of the cell
  EC50: > 10000 nM
AhR [3]; number of the cell
  EC50: > 30000 nM

## OCC1CCN(c2cc(-c3ccc(N4CCOCC4)c(F)c3)nc(-c3cccnc3)n2)CC1 [Example 276, (1-(6-(3-fluoro-4-morpholinophenyl)-2-(pyridin-3-yl)pyrimidin-4-yl)piperidin-4-yl)methanol]
AhR [2]; [7]
  IC50: < 10 nM
AhR [3]; class in brackets of the cell
  EC50: > 10000 nM
AhR [3]; number of the cell
  EC50: > 30000 nM

## OCC1CCN(c2cc(-c3ccc(OC4CCCCO4)cc3)nc(-c3cccnc3)n2)CC1 (centres unmarked) [Example 278, (1-(2-(pyridin-3-yl)-6-(4-((tetrahydro-2H-pyran-2-yl)oxy)phenyl)pyrimidin-4-yl)piperidin-4-yl)methanol]
AhR [2]; [7]
  IC50: 10 to 100 nM
AhR [3]; class in brackets of the cell
  EC50: > 10000 nM
AhR [3]; number of the cell
  EC50: > 30000 nM

## OCC1CCN(c2cc(-c3ccc(N4CCOCC4)nc3)nc(-c3cccnc3)n2)CC1 [Example 289, (1-(6-(6-morpholinopyridin-3-yl)-2-(pyridin-3-yl)pyrimidin-4-yl)piperidin-4-yl)methanol]
AhR [2]; [7]
  IC50: < 10 nM
AhR [3]; class in brackets of the cell
  EC50: > 10000 nM
AhR [3]; number of the cell
  EC50: > 30000 nM

## O[C@H]1CON(c2cc(-c3ccc(C(F)(F)F)cc3)nc(-c3cccnc3)n2)C1 [Example 314, (R)-2-(2-(pyridin-3-yl)-6-(4-(trifluoromethyl)phenyl)pyrimidin-4-yl)isoxazolidin-4-ol]
AhR [2]; [7]
  IC50: < 10 nM
AhR [3]; class in brackets of the cell
  EC50: > 10000 nM
AhR [3]; number of the cell
  EC50: > 30000 nM

## O=S(=O)(C(F)F)N1CCN(c2cc(-c3ccc(Cl)cc3)nc(-c3cccnc3)n2)CC1 [Example 339, 4-(4-chlorophenyl)-6-(4-((difluoromethyl)sulfonyl)piperazin-1-yl)-2-(pyridin-3-yl)pyrimidine]
AhR [1]; [4]
  inhibition at 0.123 µM: 84.7%
AhR [2]; [7]
  IC50: 10 to 100 nM

## O=S(=O)(CCO)N1CCN(c2cc(-c3ccc(C(F)(F)F)cc3)nc(-c3cccnc3)n2)CC1 [Example 349, 2-((4-(2-(pyridin-3-yl)-6-(4-(trifluoromethyl)phenyl)pyrimidin-4-yl)piperazin-1-yl)sulfonyl)ethan-1-ol]
AhR [1]; [4]
  inhibition at 0.123 µM: 97.6%
AhR [2]; [7]
  IC50: < 10 nM

## O=C(CCCO)N1CCN(c2cc(-c3ccc(Cl)cc3)nc(-c3cccnc3)n2)CC1 [Example 361, 1-(4-(6-(4-chlorophenyl)-2-(pyridin-3-yl)pyrimidin-4-yl)piperazin-1-yl)-4-hydroxybutan-1-one]
AhR [2]; [7]
  IC50: < 10 nM
AhR [3]; class in brackets of the cell
  EC50: > 10000 nM
AhR [3]; number of the cell
  EC50: > 30000 nM

## Cis-(4-((6-(4-chlorophenyl)-2-(pyridin-3-yl)pyrimidin-4-yl)amino)cyclohexyl)methanol [Example 215]
AhR [2]; [8]
  IC50: 10 to 100 nM

## Trans-4-((6-(4-chlorophenyl)-2-(pyridin-3-yl)pyrimidin-4-yl)amino)cyclohexan-1-ol [Example 217]
AhR [2]; [8]
  IC50: 10 to 100 nM
